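Interpolation was linear, between the two tested concentrations surrounding the appropriate level; five concentrations were tested over 48 hours in 96-well plates. TGI marks complete inhibition of growth.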
Experiments:
Experiment in all cases: NCI-60 cell line screen, 48 h
A549 NSCLC = tested on: A549 NSCLC
M14 melanoma = tested on: M14 melanoma
CAKI-1 renal = tested on: CAKI-1 renal
OVCAR-3 ovarian = tested on: OVCAR-3 ovarian
HS 578T breast = tested on: HS 578T breast
OVCAR-5 ovarian = tested on: OVCAR-5 ovarian
DU-145 prostate = tested on: DU-145 prostate
KM12 colon = tested on: KM12 colon
T-47D breast = tested on: T-47D breast
NCI-H522 lung = tested on: NCI-H522 lung
OVCAR-4 ovarian = tested on: OVCAR-4 ovarian
UACC-257 melanoma = tested on: UACC-257 melanoma
UO-31 renal = tested on: UO-31 renal
HOP-62 NSCLC = tested on: HOP-62 NSCLC
HT29 colon = tested on: HT29 colon
786-0 renal = tested on: 786-0 renal
SR leukemia = tested on: SR leukemia
CCRF-CEM leukemia = tested on: CCRF-CEM leukemia
COLO 205 colon = tested on: COLO 205 colon
PC-3 prostate = tested on: PC-3 prostate
HOP-92 NSCLC = tested on: HOP-92 NSCLC
SF-539 CNS = tested on: SF-539 CNS
SNB-19 CNS = tested on: SNB-19 CNS
SK-MEL-2 melanoma = tested on: SK-MEL-2 melanoma
HCT-15 colon = tested on: HCT-15 colon
MALME-3M melanoma = tested on: MALME-3M melanoma
LOX IMVI melanoma = tested on: LOX IMVI melanoma
HCC-2998 colon = tested on: HCC-2998 colon
RXF 393 renal = tested on: RXF 393 renal
NCI-H23 lung = tested on: NCI-H23 lung
SK-OV-3 ovarian = tested on: SK-OV-3 ovarian
BT-549 breast = tested on: BT-549 breast
NCI/ADR-RES ovarian = tested on: NCI/ADR-RES ovarian
SN12C renal = tested on: SN12C renal
U251 CNS = tested on: U251 CNS
MDA-N = tested on: MDA-N
UACC-62 melanoma = tested on: UACC-62 melanoma
K-562 leukemia = tested on: K-562 leukemia
NCI-H460 lung = tested on: NCI-H460 lung
SW-620 colon = tested on: SW-620 colon
MDA-MB-231 breast = tested on: MDA-MB-231 breast
TK-10 renal = tested on: TK-10 renal
IGROV1 ovarian = tested on: IGROV1 ovarian
MOLT-4 leukemia = tested on: MOLT-4 leukemia
SF-268 CNS = tested on: SF-268 CNS
HL-60(TB) leukemia = tested on: HL-60(TB) leukemia
ACHN renal = tested on: ACHN renal
A498 renal = tested on: A498 renal
EKVX NSCLC = tested on: EKVX NSCLC
RPMI-8226 leukemia = tested on: RPMI-8226 leukemia
MCF7 breast = tested on: MCF7 breast
HCT-116 colon = tested on: HCT-116 colon
OVCAR-8 ovarian = tested on: OVCAR-8 ovarian
NCI-H226 lung = tested on: NCI-H226 lung
SK-MEL-28 melanoma = tested on: SK-MEL-28 melanoma
SF-295 CNS = tested on: SF-295 CNS
SNB-75 CNS = tested on: SNB-75 CNS
SK-MEL-5 melanoma = tested on: SK-MEL-5 melanoma
MDA-MB-435 = tested on: MDA-MB-435

CCOc1ccc(C2Oc3c(cccc3OC)C=C2[N+](=O)[O-])cc1OCC (centres undefined)
TGI (A549 NSCLC): 49.4 µM
TGI (M14 melanoma): 7.01 µM
TGI (CAKI-1 renal): 17.3 µM
TGI (OVCAR-3 ovarian): 19.6 µM
TGI (HS 578T breast): > 100 µM
TGI (OVCAR-5 ovarian): 23.3 µM
TGI (DU-145 prostate): 28.6 µM
TGI (KM12 colon): 20.1 µM
TGI (T-47D breast): > 47.5 µM
TGI (NCI-H522 lung): 3.7 µM
TGI (OVCAR-4 ovarian): 43.9 µM
TGI (UACC-257 melanoma): 12.8 µM
TGI (UO-31 renal): 8.8 µM
TGI (HOP-62 NSCLC): 19.2 µM
TGI (HT29 colon): 8.11 µM
TGI (786-0 renal): 9.77 µM
TGI (SR leukemia): 5.6 µM
TGI (CCRF-CEM leukemia): 6.88 µM
TGI (COLO 205 colon): 12.8 µM
TGI (PC-3 prostate): 14.9 µM
TGI (HOP-92 NSCLC): 27 µM
TGI (SF-539 CNS): 5.24 µM
TGI (SNB-19 CNS): 45.2 µM
TGI (SK-MEL-2 melanoma): 19.8 µM
TGI (HCT-15 colon): 19 µM
TGI (MALME-3M melanoma): 5.74 µM
TGI (LOX IMVI melanoma): 5.52 µM
TGI (HCC-2998 colon): 38.3 µM
TGI (RXF 393 renal): 11.5 µM
TGI (NCI-H23 lung): 19.7 µM
TGI (SK-OV-3 ovarian): 64.9 µM
TGI (BT-549 breast): 29.6 µM
TGI (NCI/ADR-RES ovarian): 17.9 µM
TGI (SN12C renal): > 67.1 µM
TGI (U251 CNS): 12.9 µM
TGI (MDA-N): 5.79 µM
TGI (UACC-62 melanoma): 23.3 µM
TGI (K-562 leukemia): 5.19 µM
TGI (NCI-H460 lung): 26.8 µM
TGI (SW-620 colon): 4.22 µM
TGI (MDA-MB-231 breast): 10.1 µM
TGI (TK-10 renal): 31.6 µM
TGI (IGROV1 ovarian): 11.1 µM
TGI (MOLT-4 leukemia): > 28.4 µM
TGI (SF-268 CNS): 47.2 µM
TGI (HL-60(TB) leukemia): 7.07 µM
TGI (ACHN renal): 14.6 µM
TGI (A498 renal): 24 µM
TGI (EKVX NSCLC): 40 µM
TGI (RPMI-8226 leukemia): 6.49 µM
TGI (MCF7 breast): > 100 µM
TGI (HCT-116 colon): 3.31 µM
TGI (OVCAR-8 ovarian): 4.75 µM
TGI (NCI-H226 lung): 46.6 µM
TGI (SK-MEL-28 melanoma): 5.74 µM
TGI (SF-295 CNS): 32.4 µM
TGI (SNB-75 CNS): > 56.5 µM
TGI (SK-MEL-5 melanoma): 16.6 µM
TGI (MDA-MB-435): 16.7 µM

— PubChem BioAssay (NCI)
